Measured values: patent publication US11731943B2, “Therapeutic compounds, compositions and methods of use thereof” (priority 2016, dated 2023)
Like-named read-outs stand apart in the source and are kept apart here.

Columns and labels:
[1] = target: isolated recombinant JAK1 kinase domain (Homo sapiens (Human), UniProt P23458); assay: JAK1 enzyme assay (Caliper LabChip, Ki); assay type: biochemical
Method: (§1) JAK Enzyme Assays were carried out as follows:
(§2) The activity of the isolated recombinant JAK1 and JAK2 kinase domain was measured by monitoring phosphorylation of a peptide derived from JAK3 (Val-Ala-Leu-Val-Asp-Gly-Tyr-Phe-Arg-Leu-Thr-Thr, fluorescently labeled on the N-terminus with 5-carboxyfluorescein) using the Caliper LabChip® technology (Caliper Life Sciences, Hopkinton, Mass.). […] Reactions were incubated at 22° C. in 384-well polypropylene microtiter plates for 30 minutes and then stopped by addition of 25 μL of an EDTA containing solution (100 mM HEPES buffer (pH 7.2), 0.015% Brij-35, 150 mM EDTA), resulting in a final EDTA concentration of 50 mM. After termination of the kinase reaction, the proportion of phosphorylated product was determined as a fraction of total peptide substrate using the Caliper LabChip® 3000 according to the manufacturer's specifications. Ki values were then determined using the Morrison tight binding model (Morrison, J. F., Biochim. Biophys. Acta. 185:269-296 (1969); William, J. W. and Morrison, J. F., Meth. Enzymol., 63:437-467 (1979)) modified for ATP-competitive inhibition [Ki=Ki,app/(1+[ATP]/Km,app)].

[2] = target: isolated recombinant JAK2 kinase domain (Homo sapiens (Human), UniProt O60674); assay: JAK2 enzyme assay (Caliper LabChip, Ki); assay type: biochemical
isolated recombinant JAK2 kinase domain, sequence (O60674 849-1124): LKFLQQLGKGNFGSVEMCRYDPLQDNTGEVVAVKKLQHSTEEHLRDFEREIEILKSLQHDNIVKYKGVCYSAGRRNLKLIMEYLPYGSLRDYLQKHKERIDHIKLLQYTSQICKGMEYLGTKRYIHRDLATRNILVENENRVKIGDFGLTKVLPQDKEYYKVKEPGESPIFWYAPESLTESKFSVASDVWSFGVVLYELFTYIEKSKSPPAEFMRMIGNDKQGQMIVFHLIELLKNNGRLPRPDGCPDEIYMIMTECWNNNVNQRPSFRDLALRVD
Method: as §1
as §2, with “([…]” for “(Val-Ala-Leu-Val-Asp-Gly-Tyr-Phe-Arg-Leu-Thr-Thr,”, “specifications.” for “specifications. Ki values were then determined using the Morrison tight binding model (Morrison, J. F., Biochim. Biophys. Acta. 185:269-296 (1969); William, J. W. and Morrison, J. F., Meth. Enzymol., 63:437-467 (1979)) modified for ATP-competitive inhibition [Ki=Ki,app/(1+[ATP]/Km,app)].”

isolated recombinant JAK1 kinase domain, sequence (P23458 875-1153): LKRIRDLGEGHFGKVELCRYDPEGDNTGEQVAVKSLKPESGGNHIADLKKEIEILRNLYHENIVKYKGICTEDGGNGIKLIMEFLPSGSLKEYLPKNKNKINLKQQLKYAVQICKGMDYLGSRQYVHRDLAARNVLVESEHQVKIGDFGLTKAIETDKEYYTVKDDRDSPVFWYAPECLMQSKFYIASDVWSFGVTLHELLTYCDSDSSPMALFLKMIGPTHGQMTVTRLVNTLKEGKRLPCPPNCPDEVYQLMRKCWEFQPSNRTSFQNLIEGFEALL

SMILES | Ki [1] | Ki [2] | Ki ([1]; read-out: JAK1 Ki)
N#CCC1(n2cc(C(N)=O)c(NC(=O)C3CC3)n2)CCC2(CC1)Oc1ccccc1O2 (racemic) [Example 34] | 24.8 nM | 276 nM | –
N#CCC1(n2cc(C(N)=O)c(NC(=O)C3CC3)n2)CCN(Cc2cccc(-c3ccccc3)c2)CC1 (racemic) [Example 37] | 34.6 nM | 268 nM | –
N#CCC1(n2cc(C(N)=O)c(NC(=O)C3CC3)n2)CCN(Cc2ccc(N3CCCCC3)cc2)CC1 (racemic) [Example 39] | 98.2 nM | > 319 nM | –
N#CC[C@]1(n2cc(C(N)=O)c(NC(=O)C3CC3)n2)CC[C@@H](N2CC(C(F)(F)F)C2)CC1 (single isomer, unassigned) [Example 7] | – | > 319 nM | > 562 nM
N#CCC1(n2cc(C(N)=O)c(NC(=O)[C@H]3C[C@H]3C3CC3)n2)CCN(CC(F)(F)F)CC1 (stereo in doubt) [Example 176, 1-[4-(cyanomethyl)-1-(2,2,2-trifluoroethyl)-4-piperidyl]-3-[(2-cyclopropylcyclopropanecarbonyl)amino]pyrazole-4-carboxamide] | – | > 319 nM | 302 nM
N#CCC1(n2cc(C(N)=O)c(NC(=O)[C@H]3C[C@@H]3C3CC3)n2)CCN(CC(F)(F)F)CC1 (stereo in doubt) [Example 177, 1-[4-(cyanomethyl)-1-(2,2,2-trifluoroethyl)-4-piperidyl]-3-[(2-cyclopropylcyclopropanecarbonyl)amino]pyrazole-4-carboxamide] | – | 226 nM | 18.7 nM
CNC(=O)Nc1cn(C2(CC#N)CCN(CC(F)(F)F)CC2)nc1C(N)=O [Example 3, 1-(4-(Cyanomethyl)-1-(2,2,2-trifluoroethyl)piperidin-4-yl)-4-(3-methylureido)-1H-pyrazole-3-carboxamide] | – | 15.7 nM | 6.4 nM
COC(=O)Nc1nn(C2(CC#N)CCN(CC(F)(F)F)CC2)cc1C(N)=O [Example 4, Methyl (4-carbamoyl-1-(4-(cyanomethyl)-1-(2,2,2-trifluoroethyl)piperidin-4-yl)-1H-pyrazol-3-yl)carbamate] | – | 34.5 nM | 8.2 nM
N#CCC1(n2cc(C(N)=O)c(NC(=O)C3CC3)n2)CCC2(CC1)COC2 [Example 5, 1-(7-(Cyanomethyl)-2-oxaspiro[3.5]nonan-7-yl)-3-(cyclopropanecarboxamido)-1H-pyrazole-4-carboxamide] | – | 189 nM | 22.8 nM
N#CCC1(n2cc(C(N)=O)c(NC(=O)C3CC3)n2)CCN(C(=O)Cc2ccccc2)CC1 [Example 18, 1-(4-(Cyanomethyl)-1-(2-phenylacetyl)piperidin-4-yl)-3-(cyclopropanecarboxamido)-1H-pyrazole-4-carboxamide] | – | 235 nM | 30.8 nM
N#CCC1(n2cc(C(N)=O)c(NC(=O)C3CC3)n2)CCN(C(CO)c2ccccc2)CC1 (stereo not shown) [Example 19, 1-(4-(Cyanomethyl)-1-(2-hydroxy-1-phenylethyl)piperidin-4-yl)-3-(cyclopropanecarboxamido)-1H-pyrazole-4-carboxamide] | 69.3 nM | > 319 nM | –
N#CCC1(n2cc(C(N)=O)c(NC(=O)C3CC3)n2)CCN(CC(O)c2ccccc2)CC1 (stereo not shown) [Example 20, 1-(4-(cyanomethyl)-1-(2-hydroxy-2-phenylethyl)piperidin-4-yl)-3-(cyclopropanecarboxamido)-1H-pyrazole-4-carboxamide] | 447 nM | > 319 nM | –
CC(c1ccccc1)N1CCC(CC#N)(n2cc(C(N)=O)c(NC(=O)C3CC3)n2)CC1 (stereo not shown) [Example 22] | – | 151 nM | 37.4 nM
CC(=O)Nc1nn(C2(CC#N)CCN(CC(F)(F)F)CC2)cc1C(N)=O [Example 24] | – | 76.7 nM | 35.6 nM
N#CCC1(n2cc(C(N)=O)c(NC(=O)C3CC34CC4)n2)CCN(CC(F)(F)F)CC1 (stereo not shown) [Example 25] | – | > 319 nM | 81.2 nM
N#CCC1(n2cc(C(N)=O)c(NC(=O)C3CC3(F)F)n2)CCN(CC(F)(F)F)CC1 (stereo not shown) [Example 26] | – | 203 nM | 11.5 nM
N#CCC1(n2cc(C(N)=O)c(NC(=O)[C@H]3C[C@@H]3C(F)(F)F)n2)CCN(CC(F)(F)F)CC1 [Example 27] | – | 781 nM | 102 nM
